Source: BindingDB's records for doi:10.1021/jm050292k (Maxim Pharmaceuticals, 2005)

Experiments:
[1] = Caspase-3 activation activity tested in DLD1 colon cells done for 24 or 48 hr at 37 degree C
[2] = Caspase-3 activation activity tested in T47D breast cells done for 24 or 48 hr at 37 degree C
[3] = Caspase-3 activation activity tested in H1299 lung cancer cells done for 24 or 48 hr at 37 degree C
[4] = Caspase activation activity of compound in cell line H-1299 nonsmall-cell lung cancer cells
[5] = Caspase-3 activation activity tested in […] cancer cells done for 24 or 48 hr at 37 degree C
[6] = Caspase-3 activation activity tested in HT-29 cancer cells done for 24 or 48 hr at 37 degree C
[7] = Caspase-3 activation activity tested in LnCap cancer cells done for 24 or 48 hr at 37 degree C
[8] = Caspase-3 activation activity tested in ZR-75-1 cancer cells done for 24 or 48 hr at 37 degree C

Row | EC50 [1] | EC50 [2] | EC50 [3] | EC50 [4] | EC50 [5] | EC50 [6] | EC50 [7] | EC50 [8] | Compound
1 | 1490 nM | 1740 nM | > 10000 nM |  |  |  |  |  | Clc1ccc(-c2noc(-c3occc3Cl)n2)cc1 [5-(3-Chloro-furan-2-yl)-3-(4-chloro-phenyl)-[1,2,4]oxadiazole]
2 | 430 nM | 890 nM | > 10000 nM |  |  |  |  |  | FC(F)(F)Oc1ccc(-c2noc(-c3sccc3Cl)n2)cc1 [5-(3-Chloro-thiophen-2-yl)-3-(4-trifluoromethoxy-phenyl)-[1,2,4]oxadiazole]
3 | > 10000 nM | 17400 nM | > 40000 nM |  |  |  |  |  | Clc1ccc(-c2noc(-c3ccco3)n2)cc1 [3-(4-Chloro-phenyl)-5-furan-2-yl-[1,2,4]oxadiazole]
4 | 370 nM | 1410 nM | > 10000 nM |  |  |  |  |  | Clc1ccc(-c2noc(-c3sccc3Cl)n2)cc1Cl [5-(3-chlorothiophen-2-yl)-3-(3,4-dichlorophenyl)-1,2,4-oxadiazole]
5 | 280 nM | 900 nM | > 10000 nM |  |  |  |  |  | FC(F)(F)c1cccc(-c2noc(-c3sccc3Cl)n2)c1 [5-(3-Chloro-thiophen-2-yl)-3-(3-trifluoromethyl-phenyl)-[1,2,4]oxadiazole]
6 |  | > 40000 nM | > 40000 nM |  |  |  |  |  | Clc1ccc(-c2noc(-c3ccccc3Cl)n2)cc1 [5-(2-Chloro-phenyl)-3-(4-chloro-phenyl)-[1,2,4]oxadiazole]
7 | 380 nM | 910 nM | > 40000 nM |  |  |  |  |  | Cc1cc(Cl)ccc1-c1noc(-c2sccc2Cl)n1 [3-(4-chloro-2-methylphenyl)-5-(3-chlorothiophen-2-yl)-1,2,4-oxadiazole]
8 | > 10000 nM | > 40000 nM | > 40000 nM |  |  |  |  |  | Cc1ccc(-c2noc(-c3cccs3)n2)cc1 [5-Thiophen-2-yl-3-p-tolyl-[1,2,4]oxadiazole]
9 | 580 nM | 1110 nM |  | > 10000 nM |  |  |  |  | Clc1ccc(-c2noc(-c3occc3Cl)n2)nc1 [5-Chloro-2-[5-(3-chloro-furan-2-yl)-[1,2,4]oxadiazol-3-yl]-pyridine]
10 | 840 nM | 1610 nM | > 10000 nM |  |  |  |  |  | Clc1ccc(-c2noc(-c3occc3Br)n2)nc1 [2-[5-(3-Bromo-furan-2-yl)-[1,2,4]oxadiazol-3-yl]-5-chloro-pyridine]
11 |  | > 40000 nM | > 40000 nM |  |  |  |  |  | FC(F)(F)c1ccc(-c2noc(-c3ccccc3Cl)n2)cc1 [5-(2-Chloro-phenyl)-3-(4-trifluoromethyl-phenyl)-[1,2,4]oxadiazole]
12 | > 10000 nM | > 40000 nM | > 40000 nM |  |  |  |  |  | CN(C)c1ccc(-c2noc(-c3sccc3Cl)n2)cc1 [{4-[5-(3-Chloro-thiophen-2-yl)-[1,2,4]oxadiazol-3-yl]-phenyl}-dimethyl-amine]
13 | 830 nM | 1080 nM | > 10000 nM |  |  |  |  |  | Clc1ccc(-c2noc(-c3occc3Br)n2)cc1 [5-(3-Bromo-furan-2-yl)-3-(4-chloro-phenyl)-[1,2,4]oxadiazole]
14 | 760 nM | 2820 nM | > 40000 nM |  |  |  |  |  | Clc1ccsc1-c1nc(-c2ccccc2)no1 [5-(3-Chloro-thiophen-2-yl)-3-phenyl-[1,2,4]oxadiazole]
15 |  | 1970 nM | > 40000 nM |  |  |  |  |  | O=[N+]([O-])c1ccc(-c2noc(-c3occc3Cl)n2)cc1 [5-(3-Chloro-furan-2-yl)-3-(4-nitro-phenyl)-[1,2,4]oxadiazole]
16 | 1420 nM | 3660 nM | > 10000 nM |  |  |  |  |  | Cc1ccc(-c2noc(-c3sccc3Cl)n2)cc1 [5-(3-Chloro-thiophen-2-yl)-3-p-tolyl-[1,2,4]oxadiazole]

Row | EC50 [1] | EC50 [2] | EC50 [3] | EC50 [4] | EC50 [5] | EC50 [6] | EC50 [7] | EC50 [8] | Compound
17 | 1320 nM | 3320 nM | > 10000 nM |  |  |  |  |  | Clc1ccc(-c2noc(-c3sccc3Br)n2)cc1 [5-(3-Bromo-thiophen-2-yl)-3-(4-chloro-phenyl)-[1,2,4]oxadiazole]
18 | 410 nM | 1440 nM | > 10000 nM |  |  |  |  |  | FC(F)(F)c1ccc(-c2noc(-c3sccc3Cl)n2)nc1 [2-[5-(3-Chloro-thiophen-2-yl)-[1,2,4]oxadiazol-3-yl]-5-trifluoromethyl-pyridine]
19 | 1070 nM | 2010 nM | > 10000 nM |  |  |  |  |  | FC(F)(F)c1ccc(-c2noc(-c3occc3Br)n2)cc1 [5-(3-Bromo-furan-2-yl)-3-(4-trifluoromethyl-phenyl)-[1,2,4]oxadiazole]
20 | 390 nM | 1590 nM | > 40000 nM |  |  |  |  |  | Clc1ccc(-c2noc(-c3sccc3Cl)n2)nc1 [5-Chloro-2-[5-(3-chloro-thiophen-2-yl)-[1,2,4]oxadiazol-3-yl]-pyridine]
21 | 480 nM | 520 nM | > 10000 nM |  |  |  |  |  | FC(F)(F)c1ccc(-c2noc(-c3occc3Cl)n2)cc1 [5-(3-Chloro-furan-2-yl)-3-(4-trifluoromethyl-phenyl)-[1,2,4]oxadiazole]
22 | > 10000 nM | > 40000 nM | > 40000 nM |  |  |  |  |  | Clc1ccc(-c2noc(-c3cccs3)n2)cc1 [3-(4-Chloro-phenyl)-5-thiophen-2-yl-[1,2,4]oxadiazole]
23 | 1450 nM | 4170 nM | > 10000 nM |  |  |  |  |  | COc1ccc(-c2noc(-c3sccc3Cl)n2)cc1 [5-(3-Chloro-thiophen-2-yl)-3-(4-methoxy-phenyl)-[1,2,4]oxadiazole]
24 | 240 nM | 920 nM | > 10000 nM |  |  |  |  |  | FC(F)(F)c1ccc(-c2noc(-c3sccc3Cl)n2)cn1 [5-[5-(3-Chloro-thiophen-2-yl)-[1,2,4]oxadiazol-3-yl]-2-trifluoromethyl-pyridine]
25 | 440 nM | 1210 nM | > 40000 nM |  | > 10000 nM | 760 nM | > 10000 nM | 3340 nM | FC(F)(F)c1ccc(-c2noc(-c3sccc3Cl)n2)cc1 [5-(3-Chloro-thiophen-2-yl)-3-(4-trifluoromethyl-phenyl)-[1,2,4]oxadiazole]
26 | 560 nM | 930 nM | > 10000 nM |  |  |  |  |  | FC(F)(F)c1cc(-c2noc(-c3sccc3Cl)n2)ccc1Cl [5-(3-Chloro-thiophen-2-yl)-3-(4-chloro-3-trifluoromethyl-phenyl)-[1,2,4]oxadiazole]
27 | > 10000 nM | > 40000 nM | > 40000 nM |  |  |  |  |  | CCOc1ccsc1-c1nc(-c2ccc(Cl)cc2)no1 [3-(4-Chloro-phenyl)-5-(3-ethoxy-thiophen-2-yl)-[1,2,4]oxadiazole]
28 | > 10000 nM | > 40000 nM | > 40000 nM |  |  |  |  |  | Cc1csc(-c2nc(-c3ccc(Cl)cc3)no2)c1Cl [5-(3-Chloro-4-methyl-thiophen-2-yl)-3-(4-chloro-phenyl)-[1,2,4]oxadiazole]
29 | 700 nM | 610 nM | > 10000 nM |  |  |  |  |  | FC(F)(F)c1ccc(-c2noc(-c3occc3Br)n2)nc1 [2-[5-(3-Bromo-furan-2-yl)-[1,2,4]oxadiazol-3-yl]-5-trifluoromethyl-pyridine]
30 | 790 nM | 1770 nM | > 40000 nM |  |  |  |  |  | Clc1ccc(-c2noc(-c3sccc3Cl)n2)cc1 [3-(4-Chloro-phenyl)-5-(3-chloro-thiophen-2-yl)-[1,2,4]oxadiazole]
31 | 290 nM | 750 nM | > 10000 nM |  |  |  |  |  | Clc1ccc(-c2noc(-c3sccc3Cl)n2)cn1 [2-Chloro-5-[5-(3-chloro-thiophen-2-yl)-[1,2,4]oxadiazol-3-yl]-pyridine]
